Results: paper PMC3509773 (The botulinum journal, 2011)
pIC50: −log10 of the molar value.

Assays:
Assay type in all cases: biochemical
BoNT/A LC = BoNT/A LC (Clostridium botulinum, UniProt P0DPI0)
BaLF = BaLF (Bacillus anthracis, UniProt P15917); details: read-out: IC50 BaLF FRET
MMP-2 = MMP-2 (Homo sapiens, UniProt P08253); details: read-out: IC50 MMP-2 (FRET assay)
BoNT/B LC = BoNT/B LC (Clostridium botulinum, UniProt P10844); details: read-out: IC50 BoNT/B LC FRET
MMP-1 = MMP-1 (Homo sapiens, UniProt P03956); details: read-out: IC50 MMP-1 (FRET assay)
MMP-9 = MMP-9 (Homo sapiens, UniProt P14780); details: read-out: IC50 MMP-9 (FRET assay)
Sequence of MMP-9 (P14780 94-707): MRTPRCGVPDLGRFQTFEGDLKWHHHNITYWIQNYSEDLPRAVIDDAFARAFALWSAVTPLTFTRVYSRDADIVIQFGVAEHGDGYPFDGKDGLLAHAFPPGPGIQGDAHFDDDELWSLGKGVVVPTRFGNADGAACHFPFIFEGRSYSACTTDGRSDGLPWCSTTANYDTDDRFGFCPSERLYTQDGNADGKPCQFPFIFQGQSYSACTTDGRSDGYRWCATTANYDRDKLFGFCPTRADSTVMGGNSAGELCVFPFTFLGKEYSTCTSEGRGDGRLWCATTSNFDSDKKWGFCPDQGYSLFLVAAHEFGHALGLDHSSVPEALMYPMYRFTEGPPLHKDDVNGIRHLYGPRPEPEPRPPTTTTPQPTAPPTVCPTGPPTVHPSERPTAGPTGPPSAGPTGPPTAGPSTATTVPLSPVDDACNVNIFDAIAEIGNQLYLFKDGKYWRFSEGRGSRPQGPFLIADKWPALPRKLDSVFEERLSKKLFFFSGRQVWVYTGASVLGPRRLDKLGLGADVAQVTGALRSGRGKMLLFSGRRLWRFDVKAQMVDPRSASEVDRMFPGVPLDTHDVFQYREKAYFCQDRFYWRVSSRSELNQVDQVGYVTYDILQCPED

Sequence of MMP-1 (P03956 100-469): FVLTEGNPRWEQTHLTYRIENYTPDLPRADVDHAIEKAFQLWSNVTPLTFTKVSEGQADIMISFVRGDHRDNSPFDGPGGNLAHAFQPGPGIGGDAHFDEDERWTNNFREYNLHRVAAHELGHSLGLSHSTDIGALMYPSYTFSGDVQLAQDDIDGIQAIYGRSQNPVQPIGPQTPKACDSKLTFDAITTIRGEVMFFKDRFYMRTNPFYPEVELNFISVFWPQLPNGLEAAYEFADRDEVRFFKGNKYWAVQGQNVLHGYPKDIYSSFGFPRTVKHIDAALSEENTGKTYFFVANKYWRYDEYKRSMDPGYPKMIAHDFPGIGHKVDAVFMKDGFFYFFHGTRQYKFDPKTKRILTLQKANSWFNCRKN
Sequence of BaLF (P15917 34-809 limits assumed): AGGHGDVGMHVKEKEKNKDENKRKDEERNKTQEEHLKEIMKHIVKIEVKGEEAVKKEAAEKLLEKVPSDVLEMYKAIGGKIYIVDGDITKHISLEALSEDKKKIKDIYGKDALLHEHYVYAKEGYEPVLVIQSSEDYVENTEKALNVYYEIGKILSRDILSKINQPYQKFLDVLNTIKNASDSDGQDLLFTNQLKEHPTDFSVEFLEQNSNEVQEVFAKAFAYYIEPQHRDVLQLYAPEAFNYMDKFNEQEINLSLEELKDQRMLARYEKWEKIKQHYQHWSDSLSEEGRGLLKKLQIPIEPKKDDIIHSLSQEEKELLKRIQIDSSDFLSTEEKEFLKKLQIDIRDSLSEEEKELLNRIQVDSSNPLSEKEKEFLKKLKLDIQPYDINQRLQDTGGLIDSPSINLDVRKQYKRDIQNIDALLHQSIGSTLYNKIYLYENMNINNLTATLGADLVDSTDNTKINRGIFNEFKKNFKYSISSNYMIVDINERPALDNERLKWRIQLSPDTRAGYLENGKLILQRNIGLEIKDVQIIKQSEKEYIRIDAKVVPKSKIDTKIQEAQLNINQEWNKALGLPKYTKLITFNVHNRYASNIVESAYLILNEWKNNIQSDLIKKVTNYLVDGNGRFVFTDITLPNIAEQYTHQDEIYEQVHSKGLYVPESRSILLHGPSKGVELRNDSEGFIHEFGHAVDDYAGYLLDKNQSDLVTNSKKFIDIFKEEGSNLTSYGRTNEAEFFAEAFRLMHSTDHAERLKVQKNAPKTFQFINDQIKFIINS
Sequence of BoNT/A LC (P0DPI0 2-448 limits assumed): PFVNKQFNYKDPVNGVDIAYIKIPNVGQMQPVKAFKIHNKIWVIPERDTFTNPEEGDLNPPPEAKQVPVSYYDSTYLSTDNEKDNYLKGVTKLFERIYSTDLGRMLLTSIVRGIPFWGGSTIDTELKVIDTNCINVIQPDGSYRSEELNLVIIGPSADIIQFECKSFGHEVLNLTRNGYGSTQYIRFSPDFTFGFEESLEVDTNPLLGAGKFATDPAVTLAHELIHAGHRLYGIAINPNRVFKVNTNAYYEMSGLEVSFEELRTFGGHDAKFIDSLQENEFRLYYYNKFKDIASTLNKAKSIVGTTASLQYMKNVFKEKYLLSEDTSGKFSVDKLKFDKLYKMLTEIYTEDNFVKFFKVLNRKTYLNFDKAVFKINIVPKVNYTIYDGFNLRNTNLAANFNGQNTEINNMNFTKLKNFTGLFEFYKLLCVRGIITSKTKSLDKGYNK
Sequence of BoNT/B LC (P10844 2-441 limits assumed): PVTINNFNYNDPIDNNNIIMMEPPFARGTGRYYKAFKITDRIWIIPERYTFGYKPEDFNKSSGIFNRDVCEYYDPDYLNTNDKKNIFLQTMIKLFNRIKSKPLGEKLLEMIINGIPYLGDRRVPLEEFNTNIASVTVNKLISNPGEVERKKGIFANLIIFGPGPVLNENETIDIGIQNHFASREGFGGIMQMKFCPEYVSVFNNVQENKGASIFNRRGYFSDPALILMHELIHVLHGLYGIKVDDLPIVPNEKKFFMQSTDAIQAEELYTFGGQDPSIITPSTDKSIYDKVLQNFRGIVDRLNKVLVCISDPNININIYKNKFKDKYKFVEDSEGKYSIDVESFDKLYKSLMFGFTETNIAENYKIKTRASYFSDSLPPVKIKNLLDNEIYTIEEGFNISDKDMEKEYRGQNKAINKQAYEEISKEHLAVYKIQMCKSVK
Sequence of MMP-2 (P08253 110-660): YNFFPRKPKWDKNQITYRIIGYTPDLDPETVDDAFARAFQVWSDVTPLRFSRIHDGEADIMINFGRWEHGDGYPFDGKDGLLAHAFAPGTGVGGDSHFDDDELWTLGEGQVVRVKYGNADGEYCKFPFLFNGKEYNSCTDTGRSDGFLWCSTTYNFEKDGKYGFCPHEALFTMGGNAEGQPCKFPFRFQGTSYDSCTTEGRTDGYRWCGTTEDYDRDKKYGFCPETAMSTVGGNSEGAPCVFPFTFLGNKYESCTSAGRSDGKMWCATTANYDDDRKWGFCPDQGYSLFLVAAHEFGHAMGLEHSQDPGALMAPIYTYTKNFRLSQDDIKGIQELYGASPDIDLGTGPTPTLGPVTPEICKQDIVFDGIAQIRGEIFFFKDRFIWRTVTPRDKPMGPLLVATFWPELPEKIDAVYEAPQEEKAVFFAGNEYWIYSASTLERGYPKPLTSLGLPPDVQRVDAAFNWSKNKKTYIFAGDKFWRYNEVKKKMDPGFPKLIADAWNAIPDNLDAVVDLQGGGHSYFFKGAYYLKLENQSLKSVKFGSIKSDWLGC

In the case of `[Cl-].[Cl-].[Zn+2]` [zinc chloride], the “inhibition of BoNT/A LC activity” value (BoNT/A LC) was 4–5%.

Compound `O=C(C=Cc1ccc(Cl)cc1Cl)NO` [Hydroxamate, N-Hydroxy-2,4-dichlorocinnanamide] has a pIC50 (BaLF) of under 4.00, a pIC50 (MMP-2) of under 4.00 and a pIC50 (BoNT/B LC) of under 4.00. For the same compound, the pIC50 (MMP-1) was under 4.00 and the pIC50 (MMP-9) was under 4.00.
